The text below walks through data of US6579880B2, “Isoxazoles and oxadiazoles as anti-inflammatory inhibitors of IL-8” (Ortho-McNeil Pharmaceutical, Inc., priority 2000, dated 2003).

The subject of the first experiment is IL-8 receptor (purified human neutrophils). As to the kind of experiment: radio labeled IL-8 receptor binding assay in purified human neutrophils using I125-IL-8 as ligand. Particulars: Table 1; inhibition of I125-IL-8 (0.125 nM) binding to human neutrophils, 37° C. 60 minutes; read-out: IC50. The protocol:
Neutrophils are purified from fresh human blood by dextran sedimentation in an equal volume of 3% dextran in saline for 30 minutes. After sedimentation, the blood is centrifuged for 10 minutes at 1000 rpm at 4° C. and the supernate is aspirated and discarded. […] Ten mls ficoll is underlaid of the blood and the sample is centrifuged for 40 minutes at 1400 rpm at 25° C. After centrifugation, the supernate is removed and the cells re-suspended for cell counting. Cell volume is adjusted to 8×10^5 cells/ml in binding buffer without BSA.
The plates are then incubated at 37° C. for 60 minutes and the supernate is aspirated to within 2 mm of the bottom of the well. The plates are then sealed and counted for 1 minute in a Packard TopCount.
Drug treated wells are compared to vehicle treated wells for inhibition of binding as determined by a decrease in dpm as compared to the vehicle wells.
% Inhibition is calculated as follows: [formula]
IC50 is calculated using K-Graph.
`CN1CCN(CCCOc2ccc(-c3cc(-c4ccc(C(C)(C)C)cc4)no3)cc2)CC1` [Compound 4, piperazine, 1-[3-[4-[3-[4-(1,1-dimethylethyl)phenyl]-5-isoxazolyl]phenoxy]propyl]-4-methyl-]: the IC50 was 2.7 µM.
For the compound `CN1CCN(CCCOc2ccc(-c3cc(-c4ccc(Cl)c(C(F)(F)F)c4)no3)cc2)CC1` [Compound 8, piperazine, 1-[3-[4-[3-[4-chloro-3-(trifluoromethyl)phenyl]-5-isoxazolyl]phenoxy]propyl]-4-methyl-], the IC50 worked out at 2.7 µM.
On the same count and under the same terms, for `Clc1ccc(-c2noc(-c3ccc(OCCCN4CCNCC4)cc3)n2)cc1` [Compound 15, piperazine, 1-[3-[4-[3-(4-chlorophenyl)-1,2,4-oxadiazol-5-yl]phenoxy]propyl]-] the value was 2.8 µM.

Still in this experiment, the particulars now being: Table 2; inhibition of I125-IL-8 (0.125 nM) binding to human neutrophils, 37° C. 60 minutes; read-out: IC50.
Turning to `Cc1ccc(-c2cc(-c3ccc(OCCCN(C)C)cc3)no2)cc1` [Compound 19], the IC50 is 5.1 µM.
The same measure, in the same setting: for `CN(C)CCCOc1ccc(-c2cc(-c3ccc(Cl)cc3)on2)cc1` [Compound 21, 1-propanamine, 3-[4-[5-(4-chlorophenyl)-3-isoxazolyl]phenoxy]-N, N-dimethyl-] the value was 2.7 µM; for `CN(C)CCCOc1ccc(-c2cc(-c3ccc(F)cc3)on2)cc1` [Compound 22], 3.1 µM.
Same read-out and setting: with `CN1CCN(CCCOc2ccc(-c3cc(-c4ccccc4)on3)cc2)CC1` [Compound 25] the figure was 6.2 µM; with `CN1CCN(CCCOc2ccc(-c3cc(-c4ccc(Cl)cc4)on3)cc2)CC1` [Compound 27, piperazine, 1-[3-[4-[5-(4-chlorophenyl)-3-isoxazolyl]phenoxy]propyl]-4-methyl-], 1.6 µM; with `CN(C)CCCOc1ccc(-c2noc(-c3ccccc3)c2Br)cc1` [Compound 28], 10.9 µM.
Same read-out and setting: with `CN(C)CCCOc1ccc(-c2noc(-c3ccccc3)c2Cl)cc1` [Compound 29] the figure was 6 µM.
`CN(C)CCCOc1cccc(-c2cc(-c3ccc(Cl)cc3)on2)c1` [Compound 32]: the concentration for half-maximal inhibition (IC50) worked out at 8.1 µM.
Still for that read-out and setting: with `Cc1ccc(-c2cc(-c3cccc(OCCCN(C)C)c3)no2)cc1` [Compound 33] the figure was 5.1 µM.
`CN(C)CCCOc1cccc(-c2cc(-c3ccccc3)on2)c1` [Compound 34]: the IC50 is 10.3 µM.
As to `CN1CCN(CCCOc2ccccc2-c2cc(-c3ccccc3)on2)CC1` [Compound 35], the half-maximal inhibitory concentration (IC50) was 12.1 µM.
For the compound `CN1CCN(CCCOc2ccccc2-c2cc(-c3ccc(Cl)cc3)on2)CC1` [Compound 36], the IC50 worked out at 5.6 µM.
The same measure, in the same setting: with `CCN(CC)CCCOc1ccccc1-c1cc(-c2ccccc2)on1` [Compound 37] the figure was 6.5 µM; with `CN(C)CCCOc1ccccc1-c1cc(-c2ccc(Cl)cc2)on1` [Compound 38], 4.4 µM; with `CN1CCN(CCCCOc2ccc(-c3cc(-c4ccc(Cl)cc4)on3)cc2)CC1` [Compound 39], 8.9 µM.
The same measure, in the same setting: for `CN(C)CCCCOc1ccc(-c2cc(-c3ccc(Cl)cc3)on2)cc1` [Compound 40] the value was 3.9 µM; for `CN1CCN(CCCCOc2ccccc2-c2cc(-c3ccc(Cl)cc3)on2)CC1` [Compound 41], 11 µM.

The experiment is the same for the next values; noted with them: Table 3; inhibition of I125-IL-8 (0.125 nM) binding to human neutrophils, 37° C. 60 minutes; read-out: IC50.
On to `CN1CCCC(COc2ccc(-c3cc(-c4ccccc4)on3)cc2)C1` (stereo not shown) [Compound 43], for which the IC50 was 5.3 µM.
On to `CN1CCC(Oc2ccc(-c3cc(-c4ccccc4)on3)cc2)CC1` [Compound 44], for which the IC50 was found to be 7.6 µM.

Staying with this experiment, now noted: Table 4; inhibition of I125-IL-8 (0.125 nM) binding to human neutrophils, 37° C. 60 minutes; read-out: IC50.
Consider `CN(C)CCCNC(=O)c1ccc(-c2cc(-c3ccc(Cl)cc3)on2)cc1` [Compound 45], for which the IC50 was determined as 5.8 µM.
Regarding `CN1CCN(CCCNC(=O)c2ccc(-c3cc(-c4ccc(Cl)cc4)on3)cc2)CC1` [Compound 46], the IC50 turned out to be 6.1 µM.
On the same count and under the same terms, with `COc1ccc(-c2cc(-c3ccc(C(=O)NCCCN(C)C)cc3)no2)cc1` [Compound 48] the figure was 18.1 µM.

The same experiment, now with this note: Table 6; inhibition of I125-IL-8 (0.125 nM) binding to human neutrophils, 37° C. 60 minutes; read-out: IC50.
As to `CN(C)CCCNc1ccc(-c2nc(-c3ccc(Cl)cc3)no2)cn1` [Compound 54, 1,3-propanediamine, N^1-[5-[3-(4-chlorophenyl)-1,2,4-oxadiazol-5-yl]-2-pyridinyl]-N^3, N^3-dimethyl-], the IC50 amounted to 5.35 µM.
Still for that read-out and setting: for `CN(C)CCCOc1ccc(-c2nc(-c3ccc(Cl)cc3)no2)cn1` [Compound 55] the value was 4.78 µM.

The experiment is the same for the next values; noted with them: unlabelled IL-8 as standard in the I125-IL-8 binding assay; read-out: IC50 of standard antagonist.
“Unlabelled IL-8: Unlabelled IL-8 (Interleukin-8, chemotactic cytokine) serves as the standard antagonist in the binding assay [reference compound]”: the IC50 is about 0.001 µM.

As usually defined, the IC50 is the concentration needed to halve the response being measured.
